According to BigSolDB 2.1:

SMILES	solubility (mole fraction) (in DMF, 278.15 K)	solubility (mole fraction) (in DMF, 283.15 K)	solubility (mole fraction) (in DMF, 288.15 K)	solubility (mole fraction) (in DMF, 293.15 K)	solubility (mole fraction) (in DMF, 298.15 K)	solubility (mole fraction) (in DMF, 303.15 K)	solubility (mole fraction) (in DMF, 308.15 K)	solubility (mole fraction) (in DMF, 313.15 K)	solubility (mole fraction) (in DMF, 318.15 K)	solubility (mole fraction) (in water, 278.15 K)	solubility (mole fraction) (in water, 283.15 K)	solubility (mole fraction) (in water, 288.15 K)	solubility (mole fraction) (in water, 293.15 K)	solubility (mole fraction) (in water, 298.15 K)	solubility (mole fraction) (in water, 303.15 K)	solubility (mole fraction) (in water, 308.15 K)	solubility (mole fraction) (in water, 313.15 K)	solubility (mole fraction) (in water, 318.15 K)
CC(C)CC(N)C(=O)O (racemic)	0.00011	0.00012	0.00014	0.00015	0.00017	0.00018	0.0002	0.00021	0.00023	0.0011	0.00115	0.00124	0.00128	0.00135	0.00144	0.00155	0.00164	0.00178
CC[C@H](C)[C@H](N)C(=O)O (racemic)	0.00023	0.00024	0.00025	0.00026	0.00027	0.00028	0.00029	0.0003	0.00031	0.0025	0.00269	0.0027	0.0029	0.003	0.0032	0.0034	0.0036	0.0038
